For 19 compounds, IC50 results are on record in ChEMBL document CHEMBL4043279 (Bioorg Med Chem Lett, 2017).

Molecules are shown by their SMILES. Where only a bound is given, the exact number is not on record here.

One assay deals with PC-3. Nature of the assay: Antiproliferative activity against human PC3 cells treated for 24 hrs measured after 72 hrs by MTT assay. Type of assay: functional, cell-based.
The subject of a further assay is HepG2. Briefly: Antiproliferative activity against human HepG2 cells treated for 24 hrs measured after 72 hrs by MTT assay. The class given is functional, cell-based. For orientation: Tetrazolium dyes change colour on reduction, which living cells bring about.
In a further assay the test system is THP-1. Nature of the assay: Antiproliferative activity against human THP1 cells treated for 24 hrs measured after 72 hrs by MTT assay. The class given is functional, cell-based.
The next assay relates to HL-60. Briefly: Antiproliferative activity against human HL60 cells treated for 24 hrs measured after 72 hrs by MTT assay. The class given is functional, cell-based.
The next assay deals with PBMC. Briefly: Antiproliferative activity against human PBMC treated for 24 hrs measured after 72 hrs by MTT assay. The class given is cell-based.

With `CN1c2ccccc2C(=O)N2CCc3c(n(CCCOCCCO)c4ccccc34)C21` (stereo not drawn), the IC50 (as a rule, the concentration that gives 50% inhibition) is 19.9 µM in the assay on PC-3; above 100 µM with HepG2; 8.42 µM in the assay with THP-1; 5.31 µM in the assay with HL-60; above 200 µM in the assay on PBMC.
The matching figures for `CN1c2ccccc2C(=O)N2CCc3c(n(CCCOCCCOC(=O)CCCc4ccc(N(CCCl)CCCl)cc4)c4ccccc34)C21` (stereo not drawn): 27.6 µM, above 100 µM, 5.31 µM, 1.29 µM and above 200 µM.
Turning to `CN1c2ccccc2C(=O)N2CCc3c(n(CCCOCCCOC(=O)c4ccc(N(CCCl)CCCl)cc4)c4ccccc34)C21` (stereo not drawn), the IC50 in the assay with PC-3 was above 100 µM; with HepG2, above 100 µM; with THP-1, 9.29 µM; with HL-60 it was 22.3 µM; in the assay with PBMC it was above 200 µM.
`COC(=O)[C@H](Cc1ccc(N(CCCl)CCCl)cc1)NC(=O)CCC(=O)OCCCn1c2c(c3ccccc31)CCN1C(=O)c3ccccc3N(C)C21` (stereo partly drawn): the IC50 is above 100 µM in the assay on PC-3; above 100 µM in the assay on HepG2; 2.37 µM with THP-1; 1.12 µM in the assay with HL-60; above 200 µM with PBMC.
As for `CN1c2ccccc2C(=O)N2CCc3c(n(CCCCCCO)c4ccccc34)C21` (stereo not drawn), the IC50 with PC-3 is 21.5 µM; with HepG2, above 100 µM; with THP-1 it was 6.97 µM; in the assay on HL-60, 8.53 µM; in the assay with PBMC it was above 200 µM.
The matching figures for `CN1c2ccccc2C(=O)N2CCc3c(n(CCOC(=O)CCCc4ccc(N(CCCl)CCCl)cc4)c4ccccc34)C21` (stereo not drawn): 45.7 µM, above 100 µM, 4.82 µM, 11.3 µM and above 200 µM.
With `CN1c2ccccc2C(=O)N2CCc3c(n(CCCOC(=O)CCCc4ccc(N(CCCl)CCCl)cc4)c4ccccc34)C21` (stereo not drawn), the IC50 was above 100 µM with PC-3; above 100 µM with HepG2; 5.68 µM in the assay with THP-1; 4.3 µM in the assay with HL-60; above 200 µM in the assay with PBMC.
Take `O=c1[nH]cc(F)c(=O)[nH]1` [FLUOROURACIL]: the IC50 was 23.9 µM with PC-3, 4.87 µM in the assay with THP-1 and 3.69 µM with HL-60.
For the compound `O=C(O)CCCc1ccc(N(CCCl)CCCl)cc1` [CHLORAMBUCIL], the half-inhibitory concentration (IC50) is 42.1 µM in the assay with PC-3; above 100 µM with HepG2; 5.3 µM with THP-1; 12.9 µM with HL-60; above 200 µM in the assay with PBMC.
The matching figures for `CN1c2ccccc2C(=O)N2CCc3c([nH]c4ccccc34)C21` (stereo not drawn): 14 µM, 9.32 µM, 3.37 µM, 1.39 µM and 22.9 µM.
On the same counts, the results for `CN1c2ccccc2C(=O)N2CCc3c(n(CCO)c4ccccc34)C21` (stereo not drawn) are 12.3 µM, above 100 µM, 1.64 µM, 7.1 µM and above 200 µM.
The matching figures for `CN1c2ccccc2C(=O)N2CCc3c(n(CCCCCCOC(=O)c4ccc(N(CCCl)CCCl)cc4)c4ccccc34)C21` (stereo not drawn): above 100 µM, above 100 µM, 3.92 µM, 23.5 µM and above 200 µM.
Regarding `CN1c2ccccc2C(=O)N2CCc3c(n(CCOC(=O)c4ccc(N(CCCl)CCCl)cc4)c4ccccc34)C21` (stereo not drawn), the half-inhibitory concentration (IC50) is above 100 µM with PC-3; above 100 µM with HepG2; 33.6 µM with THP-1; 27.2 µM in the assay on HL-60; above 200 µM in the assay on PBMC.
For the compound `COC(=O)[C@H](Cc1ccc(N(CCCl)CCCl)cc1)NC(=O)CCC(=O)OCCn1c2c(c3ccccc31)CCN1C(=O)c3ccccc3N(C)C21` (stereo partly drawn), the IC50 in the assay with PC-3 is above 100 µM; with HepG2, above 100 µM; in the assay on THP-1, 9.37 µM; in the assay on HL-60 it was 3.11 µM; with PBMC it was above 200 µM.
Consider `CN1c2ccccc2C(=O)N2CCc3c(n(CCCO)c4ccccc34)C21` (stereo not drawn), for which the IC50 with PC-3 is 27.3 µM; in the assay with HepG2, above 100 µM; in the assay on THP-1, 8.89 µM; in the assay with HL-60 it was 6.03 µM; with PBMC it was above 200 µM.
On the same counts, the results for `COC(=O)[C@H](Cc1ccc(N(CCCl)CCCl)cc1)NC(=O)CCC(=O)O` are above 100 µM, 13.8 µM, 3.84 µM, 5.34 µM and above 200 µM.
With `CN1c2ccccc2C(=O)N2CCc3c(n(CCCCCCOC(=O)CCCc4ccc(N(CCCl)CCCl)cc4)c4ccccc34)C21` (stereo not drawn), the IC50 with PC-3 was above 100 µM; in the assay with HepG2, above 100 µM; with THP-1, 10.5 µM; in the assay on HL-60 it was 17.5 µM; in the assay on PBMC, above 200 µM.
Consider `CN1c2ccccc2C(=O)N2CCc3c(n(CCCOC(=O)c4ccc(N(CCCl)CCCl)cc4)c4ccccc34)C21` (stereo not drawn), for which the IC50 was above 100 µM in the assay on PC-3; above 100 µM with HepG2; 6.6 µM in the assay on THP-1; 30.9 µM with HL-60; above 200 µM with PBMC.
On to `COC(=O)[C@H](Cc1ccc(N(CCCl)CCCl)cc1)NC(=O)CCC(=O)OCCCCCCn1c2c(c3ccccc31)CCN1C(=O)c3ccccc3N(C)C21` (stereo partly drawn), for which the half-maximal inhibitory concentration (IC50) with PC-3 was above 100 µM; in the assay with HepG2, above 100 µM; with THP-1 it was 4.24 µM; in the assay on HL-60, 2.84 µM; in the assay on PBMC it was above 200 µM.
